Tests used:
human AT2R fused to Cb23 = human AT2R fused to Cb23 (Homo sapiens, UniProt P50052); test: Radioligand binding assay, displacement of 125I-[Sar1, Ile8]-Angiotensin II, hAT2R Cb23; settings: displacement of 125I-[Sar1, Ile8]-Angiotensin II, human AT2R fused to Cb23, HEK-293 cell membrane preparations; read-out: Binding affinity on hAT2R_Cb23 IC50
Outline: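 Membranes from HEK-293 cells expressing human AT2R fused to Cb23 were incubated with 0.05 nM 125I-[Sar1, Ile8]-Angiotensin II in 100 μL buffer (50 mM Tris, 5 mM MgCl2, 1 mM EDTA, 0.1% BSA, pH 7.4) for one hour at 25° C. Ligands were tested as eight-point dose-response curves in duplicate, with C21 and Angiotensin II as references.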

human AT1R = human AT1R (Homo sapiens (Human), UniProt P30556); test: Counterscreen radioligand binding assay, displacement of 125I-[Sar1, Ile8]-Angiotensin II, hAT1R WT; settings: for inhibition at 1 µM / inhibition at 10 µM: 125I-[Sar1, Ile8]-Ang II, semi-quantitative score; for inhibition at 1 µM: compound at 1 μM, read-out: % Displaced radioligand at 1 μM; for inhibition at 10 µM: compound at 10 μM, read-out: % Displaced radioligand at 10 μM; for IC50: HEK-293 cell membranes, read-out: Binding affinity On hAT1R IC50
human AT1R, sequence (P30556 whole entry): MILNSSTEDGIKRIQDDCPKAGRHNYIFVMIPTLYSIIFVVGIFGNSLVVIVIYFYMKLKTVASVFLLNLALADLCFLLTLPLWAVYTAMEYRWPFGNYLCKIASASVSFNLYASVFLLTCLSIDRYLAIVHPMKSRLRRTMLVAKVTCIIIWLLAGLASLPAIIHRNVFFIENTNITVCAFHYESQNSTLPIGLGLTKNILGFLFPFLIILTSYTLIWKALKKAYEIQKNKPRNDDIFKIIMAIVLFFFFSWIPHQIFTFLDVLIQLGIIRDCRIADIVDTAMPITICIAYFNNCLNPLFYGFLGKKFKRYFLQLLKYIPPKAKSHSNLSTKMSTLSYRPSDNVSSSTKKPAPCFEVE
Outline: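 Membranes from HEK-293 cells expressing human AT1R were incubated for one hour at 25° C, pH 7.4, with 0.05 nM radiolabelled [Sar1, Ile8]-Ang II and test ligand. Bound radioactivity was collected on PEI-soaked filters, with 10 μM unlabelled [Sar1]-Ang II defining non-specific binding. Results are percent displacement at 1 μM and […], or IC50 from eight-point duplicate curves.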

human AT2R fused to Cb23, sequence (P50052 whole entry, looked up, the tested form may be a part): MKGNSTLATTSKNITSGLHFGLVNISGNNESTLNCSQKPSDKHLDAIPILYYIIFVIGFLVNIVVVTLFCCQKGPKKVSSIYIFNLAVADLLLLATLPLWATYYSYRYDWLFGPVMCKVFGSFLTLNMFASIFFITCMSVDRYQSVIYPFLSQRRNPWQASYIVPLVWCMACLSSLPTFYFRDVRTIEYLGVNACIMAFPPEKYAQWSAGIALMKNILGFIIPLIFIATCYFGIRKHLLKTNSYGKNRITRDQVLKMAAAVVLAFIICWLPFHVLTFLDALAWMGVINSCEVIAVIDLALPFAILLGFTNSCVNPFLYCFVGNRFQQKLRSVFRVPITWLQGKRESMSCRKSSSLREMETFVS

Row | Structure (SMILES) | IC50 (human AT2R fused to Cb23) | inhibition at 1 µM (human AT1R) | inhibition at 10 µM (human AT1R) | IC50 (human AT1R)
1 | CC(C)Cc1cc(F)c(-c2nn[nH]n2)c(N2CCN(Cc3ncccc3F)CC2)c1 [Compound A-196, 1-[3-fluoro-5-isobutyl-2-(2H-tetrazol-5-yl)phen-yl]-4-[(3-fluoro-2-pyridyl)methyl]-piperazine] | 631 nM | < 30% | < 30% | –
2 | Cc1cnc(CN2CCN(c3cc(CC(C)C)cc(F)c3-c3nn[nH]n3)CC2)c(C)c1 [Compound A-197, 1-[(3,5-dimethyl-2-pyridyl)methyl]-4-[3-fluoro-5-isobutyl-2-(2H-tetrazol-5-yl)phenyl]piperazine] | 203 nM | < 30% | < 30% | –
3 | COc1cccnc1CN1CCN(c2cc(CC(C)C)cc(F)c2-c2nn[nH]n2)CC1 [Compound A-198, 1-[3-fluoro-5-isobutyl-2-(2H-tetrazol-5-yl)phen-yl]-4-[(3-methoxy-2-pyridyl)meth-yl]piperazine] | 1820 nM | < 30% | < 30% | –
4 | COc1ccnc(CN2CCN(c3cc(CC(C)C)cc(F)c3-c3nn[nH]n3)CC2)c1 [Compound A-199, 1-[3-fluoro-5-isobutyl-2-(2H-tetrazol-5-yl)phen-yl]-4-[(4-methoxy-2-pyridyl)methyl]-piperazine] | 176 nM | < 30% | < 30% | –
5 | COc1c(C)cnc(CN2CCN(c3cc(CC(C)C)cc(F)c3-c3nn[nH]n3)CC2)c1C [Compound A-200, 1-[3-fluoro-5-isobutyl-2-(2H-tetrazol-5-yl)phen-yl]-4-[(4-methoxy-3,5-dimethyl-2-pyridyl)methyl]-piperazine] | 1060 nM | < 30% | < 30% | –
6 | Cc1ccc(CN2CCN(c3cc(CC(C)C)cc(F)c3-c3nn[nH]n3)CC2)nc1 [Compound A-201, 1-[3-fluoro-5-isobutyl-2-(2H-tetrazol-5-yl)phenyl]-4-[(5-methyl-2-pyridyl)methyl]piperazine] | 650 nM | < 30% | < 30% | –
7 | CC(C)Cc1cc(F)c(-c2nn[nH]n2)c(N2CCN(Cc3cc(C(F)(F)F)ccn3)CC2)c1 [Compound A-202, 1-[3-fluoro-5-isobutyl-2-(2H-tetrazol-5-yl)phenyl]-4-[[4-(trifluoromethyl)-2-pyridyl]methyl]piperazine] | 824 nM | < 30% | < 30% | –
8 | Cc1cccnc1CN1CCN(c2cc(CC(C)C)cc(F)c2-c2nn[nH]n2)CC1 [Compound A-203, 1-[3-fluoro-5-isobutyl-2-(2H-tetrazol-5-yl)phen-yl]-4-[(3-methyl-2-pyridyl)methyl]-piperazine] | 155 nM | < 30% | < 30% | –
9 | Cc1ccnc(CN2CCN(c3cc(CC(C)C)cc(F)c3-c3nn[nH]n3)CC2)c1 [Compound A-204, 1-[3-fluoro-5-isobutyl-2-(2H-tetrazol-5-yl)phen-yl]-4-[(4-methyl-2-pyridyl)methyl]-piperazine] | 212 nM | < 30% | < 30% | –
10 | CC(C)Cc1cc(F)c(-c2nn[nH]n2)c(N2CCN(Cc3ncc(Cl)cc3F)CC2)c1 [Compound A-205, 1-[(5-chloro-3-fluoro-2-pyridyl)methyl]-4-[3-fluoro-5-isobutyl-2-(2H-tetrazol-5-yl)phenyl]piperazine] | 379 nM | < 30% | < 30% | –
11 | CC(C)Cc1cc(F)c(-c2nn[nH]n2)c(N2CCN(Cc3ncc(F)cc3Cl)CC2)c1 [Compound A-206, 1-[(3-chloro-5-fluoro-2-pyridyl)-methyl]-4-[3-fluoro-5-isobutyl-2-(2H-tetrazol-5-yl)phen-yl]piperazine] | 1080 nM | < 30% | < 30% | –
12 | COc1cnc(CN2CCN(c3cc(CC(C)C)cc(F)c3-c3nn[nH]n3)CC2)cc1OC [Compound A-207, 1-[(4,5-dimethoxy-2-pyridyl)methyl]-4-[3-fluoro-5-isobutyl-2-(2H-tetrazol-5-yl)phenyl]piperazine] | 1210 nM | < 30% | < 30% | –
13 | COc1ccnc(CN2CCN(c3cc(CC(C)C)cc(F)c3-c3nn[nH]n3)CC2)c1C [Compound A-208, 1-[3-fluoro-5-isobutyl-2-(2H-tetrazol-5-yl)phen-yl]-4-[(4-methoxy-3-methyl-2-pyrid-yl)methyl]piper-azine] | 1920 nM | < 30% | < 30% | –
14 | CC(C)Cc1cc(F)c(-c2nn[nH]n2)c(N2CCN(Cc3ccc(C#N)cn3)CC2)c1 [Compound A-209, 6-[[4-[3-fluoro-5-isobutyl-2-(2H-tetrazol-5-yl)phen-yl]piperazin-1-yl]-methyl]pyridine-3-carbonitrile] | 3680 nM | 30 to 50% | > 50% | 6740 nM
15 | CC(C)Cc1cc(F)c(-c2nn[nH]n2)c(N2CCN(Cc3cc(Cl)c(F)cn3)CC2)c1 [Compound A-210, 1-[(4-chloro-5-fluoro-2-pyridyl)-methyl]-4-[3-fluoro-5-isobutyl-2-(2H-tetrazol-5-yl)phen-yl]piperazine] | 2010 nM | < 30% | < 30% | –
16 | CC(C)Cc1cc(F)c(-c2nn[nH]n2)c(N2CCN(Cc3ncc(F)cc3F)CC2)c1 [Compound A-211, 1-[(3,5-difluoro-2-pyridyl)methyl]-4-[3-fluoro-5-isobutyl-2-(2H-tetrazol-5-yl)phenyl]piperazine] | 1290 nM | < 30% | < 30% | –
17 | CC(C)Cc1ccc(-c2nn[nH]n2)c(N2CCN(C(C)c3cccnn3)CC2)c1 (centres unmarked) [Compound A-212, 3-[1-[4-[5-isobutyl-2-(2H-tetrazol-5-yl)-phenyl]piperazin-1-yl]ethyl]pyrid-azine] | 434 nM | < 30% | < 30% | –
18 | CC(C)Cc1cc(F)c(-c2nn[nH]n2)c(N2CCN(C(=O)c3cccnn3)CC2)c1 [Compound A-213, [4-[3-fluoro-5-isobutyl-2-(2H-tetrazol-5-yl)phenyl]piperazin-1-yl]-pyridazin-3-yl-methanone] | 389 nM | < 30% | < 30% | –
19 | CC(C)Cc1cc(F)c(-c2nn[nH]n2)c(N2CCN(C(C)c3ccccn3)CC2)c1 (centres unmarked) [Compound A-214, 1-[3-fluoro-5-isobutyl-2-(2H-tetrazol-5-yl)phenyl]-4-[1-(2-pyridyl)ethyl]piperazine] | 38.6 nM | < 30% | < 30% | –
20 | CC(C)Cc1cc(F)c(-c2nn[nH]n2)c(N2CCN(C(=O)c3ccccn3)CC2)c1 [Compound A-215, [4-[3-fluoro-5-isobutyl-2-(2H-tetrazol-5-yl)phen-yl]piperazin-1-yl]-(2-pyridyl)meth-anone] | 300 nM | < 30% | < 30% | –
21 | CC(C)Cc1cc(F)c(-c2nn[nH]n2)c(N2CCN(C(=O)c3ccccn3)[C@@H](C)C2)c1 [Compound A-216, [(2S)-4-[3-fluoro-5-isobutyl-2-(2H-tetrazol-5-yl)phen-yl]-2-methyl-piperazin-1-yl]-(2-pyridyl)methanone] | 247 nM | < 30% | < 30% | –
22 | CC(C)Cc1cc(F)c(-c2nn[nH]n2)c(N2CCN(C(C)c3ccccn3)[C@@H](C)C2)c1 (stereo partly drawn) [Compound A-218, (2S)-4-[3-fluoro-5-isobutyl-2-(2H-tetrazol-5-yl)phenyl]-2-methyl-1-[1-(2-pyridyl)ethyl]piperazine] | 122 nM | < 30% | < 30% | –
23 | Cc1cnc(CN2CCN(c3c(-c4nn[nH]n4)ccc(CC(C)C)c3F)CC2)s1 [Compound A-219, 2-[[4-[2-fluoro-3-isobutyl-6-(2H-tetrazol-5-yl)phen-yl]piperazin-1-yl]-methyl]-5-methyl-thiazole] | 681 nM | < 30% | < 30% | 55200 nM
24 | Cc1cnc(CN2CCN(c3cc(CC(C)C)cc(F)c3-c3nn[nH]n3)CC2)s1 [Compound A-220, 2-[[4-[3-fluoro-5-isobutyl-2-(2H-tetrazol-5-yl)phen-yl]piperazin-1-yl]-methyl]-5-methyl-thiazole] | 80.7 nM | < 30% | < 30% | –
25 | Cc1cnc(CN2CCN(c3cc(CC(C)C)cnc3-c3nn[nH]n3)CC2)s1 [Compound A-221, 2-((4-(5-isobutyl-2-(2H-tetrazol-5-yl)pyridin-3-yl)piperazin-1-yl)methyl)-5-methylthiazole] | 2740 nM | < 30% | < 30% | –
26 | Cc1cnc(CN2CCN(c3cc(CC(C)C)cc(F)c3-c3nn[nH]n3)CC2C)s1 (centres unmarked) [Compound A-222, 2-[[4-[3-fluoro-5-isobutyl-2-(2H-tetrazol-5-yl)phenyl]-2-methyl-piperazin-1-yl]methyl]-5-methyl-thiazole] | 9.47 nM | < 30% | < 30% | –

Source: patent publication US20240368133A1, “Compounds for the Treatment of Pain, in Particular, Neuropathic Pain, and/or Other Diseases or Disorders that are Associated with AT2R and/or AT2R Mediated Signaling” (Confo Therapeutics N.V., priority 2021, published 2024)
